Each compound was assayed on BaF3 BRAF-KIAA1549 fusion cells (assay: BaF3 BRAF-KIAA1549 fusion cell proliferation assay). Details: Mus musculus, BaF3, 96 h, read-out: IC50, inhibition of cell growth, BaF3-BRAF:KIAA1549 Fusion.
Assay type: cell-based
Experimental: Retroviral Production: The BRAF-KIAA1549 fusion mutant was subcloned into pMXs-IRES-Blasticidin (RTV-016, Cell Biolabs, San Diego, CA). […]. Briefly, HEK 293T cells were plated in Poly-D-lysine coated 6-well plate (2.5×10^5 cells per well) and incubated overnight. The next day, retroviral plasmids (1 μg of BRAF-KIAA fusion mutant, 0.32 μg of pCMV-Gag-Pol and 0.165 μg pCMV-VSV-G) were mixed in 300 μL of Optimem (31985, Life Technologies). The mixture was incubated at room temperature for 5 minutes and then added to Optimem containing transfection reagent Lipofectamine (11668, Invitrogen) and incubated for 20 minutes. The mixture was then added dropwise to HEK 293T cells. The next day the medium was replaced with fresh culture medium and retrovirus was harvested at 24 hours.
Generation of BRAF-KIAA1549 fusion stable cell line: BaF3 cells were plated in V-bottom 96 well plate (COSTAR #3894) in 80 μL of RPMI/10% FBS and 0.01 ng/mL mouse IL-3, supplemented with 8 μg/mL polybrene (4×10^4 cells/well). Cells were transduced with 20 μL of BRAF-KIAA1549 fusion viral supernatant by centrifuging for 30 minutes at 1000 rpm. Cells were placed in a 37 °C incubator overnight. Next day 100 μL of RPMI/10% FBS and 0.01 ng/mL mouse IL-3 was added. After 24 hours, 100 μL of cells were transferred to a 24 well plate containing 900 μL of RPMI/10% FBS and 15 μg/mL Blasticidin. Contents of the 24 well plate were sampled for cell viability via CellTiterGlo (Promega) over a 2-week period.
Assay for cell proliferation: BaF3 BRAF-KIAA1549 fusion cells were resuspended at 1.5×10^5 c/mL in RPMI containing 10% Heat Inactivated FBS, 1% L-glutamine and dispensed in duplicate ([…]) into 384 well plates. To determine the effect of compound on cell proliferation, BaF3 BRAF-KIAA1549 fusion cells were incubated for 96 hours in the presence of vehicle control (DMSO) or compound at varying concentrations. Inhibition of cell growth was determined by luminescent quantification (Envision by Perkin Elmer) of intracellular ATP content using CellTiterGlo (Promega), according to the protocol provided by the manufacturer. To determine the IC50 values, the vehicle-treated cells were normalized as viable cells and analyzed using the CDD Vault, Collaborative Drug Discovery, Burlingame, CA (the Levenberg-Marquardt algorithm; Levenberg, K, […]; Marquardt, D., 1963).
Table A assigns each compound a code for potency in the BaF3 BRAF-KIAA1549 fusion cell proliferation assay: A, B, C, or D. According to the code, A represents an IC50 value<20 nM; B represents an IC50 value≥20 nM and <100 nM; C represents an IC50 value≥100 nM and <500 nM; and D represents an IC50 value≥500 nM.
In the case of CNc1cc2ncc(-c3cc(NC(=O)c4cc(C(F)(F)F)ccn4)ccc3C)cc2cn1 [compound 1], the IC50 is reported as under 20 nM. CNc1cc2ncc(-c3cc(NC(=O)c4ccnc(C(F)(F)F)c4)ccc3C)cc2cn1 [compound 2] showed an IC50 of 20 to 100 nM. Compound CNc1cc2ncc(-c3cc(NC(=O)c4cncc(C(F)(F)F)c4)ccc3C)cc2cn1 [compound 3] has an IC50 of under 20 nM. CNc1cc2ncc(-c3cc(NC(=O)c4cccc(N(C)C)c4)ccc3C)cc2cn1 [compound 4] was tested, and the IC50 was under 20 nM. CNc1cc2ncc(-c3cc(NC(=O)c4cc(C(F)(F)F)c(C)cn4)ccc3C)cc2cn1 [compound 5] showed an IC50 of 20 to 100 nM. In the case of CNc1cc2ncc(-c3cc(NC(=O)c4nccc(C(F)(F)F)c4Cl)ccc3C)cc2cn1 [compound 6], the IC50 is reported as under 20 nM. Work on CNc1cc2ncc(-c3cc(NC(=O)C[C@@H]4C[C@H](C(F)(F)F)CCO4)ccc3C)cc2cn1 [compound 7] yielded an IC50 of under 20 nM. In the case of CNc1cc2ncc(-c3cc(NC(=O)c4ccnc(C(F)F)c4)ccc3C)cc2cn1 [compound 8], the IC50 is reported as 20 to 100 nM. CNc1cc2ncc(-c3cc(NC(=O)c4ccnc(C(C)(F)F)c4)ccc3C)cc2cn1 [compound 9] gave an IC50 of under 20 nM. Work on CNc1cc2ncc(-c3cc(NC(=O)c4ccnc(C(C)(C)F)c4)ccc3C)cc2cn1 [compound 10] yielded an IC50 of under 20 nM. CNc1cc2ncc(-c3cc(NC(=O)c4cc(C(F)F)ccn4)ccc3C)cc2cn1 [compound 11] gave an IC50 of 20 to 100 nM. With CNc1cc2ncc(-c3cc(NC(=O)c4cc(C(C)(F)F)ccn4)ccc3C)cc2cn1 [compound 12] the IC50 was 20 to 100 nM. CNc1cc2ncc(-c3cc(NC(=O)c4cc(C(C)(C)F)ccn4)ccc3C)cc2cn1 [compound 13] gave an IC50 of 100 to 500 nM. In the case of CNc1cc2ncc(-c3cc(NC(=O)c4cc(C(C)(C)C#N)ccn4)ccc3C)cc2cn1 [compound 14], the IC50 is reported as under 20 nM. For CNc1cc2ncc(-c3cc(NC(=O)c4cc(C5(C#N)CCC5)ccn4)ccc3C)cc2cn1 [compound 15], the IC50 was 20 to 100 nM. CNc1cc2ncc(-c3cc(NC(=O)c4cc(C5(C#N)CC5)ccn4)ccc3C)cc2cn1 [compound 16] showed an IC50 of under 20 nM. CNc1cc2ncc(-c3cc(NC(=O)c4ccnc(C5CC(F)(F)C5)c4)ccc3C)cc2cn1 [compound 17] showed an IC50 of under 20 nM. CNc1cc2ncc(-c3cc(NC(=O)c4ccnc(C5(F)CC5)c4)ccc3C)cc2cn1 [compound 18] showed an IC50 of under 20 nM. CNc1cc2ncc(-c3cc(NC(=O)c4cccc(N(C)C)c4)cnc3C)cc2cn1 [compound 19] gave an IC50 of under 20 nM. CNc1cc2ncc(-c3cc(NC(=O)c4cc(C(F)(F)F)ccn4)cnc3C)cc2cn1 [compound 20] gave an IC50 of under 20 nM. CNc1cc2ncc(-c3cc(NC(=O)c4cncc(C(F)(F)F)c4)cnc3C)cc2cn1 [compound 21] was tested, and the IC50 was 20 to 100 nM. For CNc1cc2ncc(-c3cc(NC(=O)c4cc(C(F)F)ccn4)cnc3C)cc2cn1 [compound 22], the IC50 was 20 to 100 nM. CNc1cc2ncc(-c3cc(NC(=O)c4cc(C(C)(F)F)ccn4)cnc3C)cc2cn1 [compound 23] showed an IC50 of 20 to 100 nM. CNc1cc2ncc(-c3cc(NC(=O)c4ccnc(C(C)(C)F)c4)cnc3C)cc2cn1 [compound 24] was tested, and the IC50 was under 20 nM. Compound CNc1cc2ncc(-c3cc(NC(=O)c4cc(C(F)(F)F)c(C)cn4)cnc3C)cc2cn1 [compound 25] has an IC50 of 20 to 100 nM. CNc1cc2ncc(-c3cc(NC(=O)c4nccc(C(F)(F)F)c4Cl)cnc3C)cc2cn1 [compound 26] was tested, and the IC50 was 20 to 100 nM. With CNc1cc2ncc(-c3cc(NC(=O)c4ccnc(C(F)(F)F)c4)cnc3C)cc2cn1 [compound 27] the IC50 was under 20 nM. CNc1cc2ncc(-c3cc(NC(=O)c4ccnc(C(F)F)c4)cnc3C)cc2cn1 [compound 28] was tested, and the IC50 was 100 to 500 nM. In the case of CNc1cc2ncc(-c3cc(NC(=O)c4ccnc(C(C)(F)F)c4)cnc3C)cc2cn1 [compound 29], the IC50 is reported as under 20 nM. In the case of CNc1cc2ncc(-c3cc(NC(=O)c4cc(C(C)(C)C#N)ccn4)cnc3C)cc2cn1 [compound 30], the IC50 is reported as 20 to 100 nM. CNc1cc2ncc(-c3cc(NC(=O)c4cc(C5(C#N)CCC5)ccn4)cnc3C)cc2cn1 [compound 31] was tested, and the IC50 was 20 to 100 nM. CNc1cc2ncc(-c3cc(NC(=O)c4cc(C5(C#N)CC5)ccn4)cnc3C)cc2cn1 [compound 32] was tested, and the IC50 was under 20 nM. CNc1cc2ncc(-c3cc(NC(=O)c4ccnc(C5(F)CC5)c4)cnc3C)cc2cn1 [compound 33] was tested, and the IC50 was under 20 nM. Work on CNc1cc2ncc(-c3cc(NC(=O)c4ccnc(C5CC(F)(F)C5)c4)cnc3C)cc2cn1 [compound 34] yielded an IC50 of 20 to 100 nM. For CNc1cc2ncc(-c3cc(NC(=O)C[C@@H]4C[C@H](C(F)(F)F)CCO4)cnc3C)cc2cn1 [compound 35], the IC50 was 20 to 100 nM. CNc1cc2ncc(-c3cc(NC(=O)C[C@H]4C[C@H](C(F)(F)F)CCO4)cnc3C)cc2cn1 [compound 36] was tested, and the IC50 was 100 to 500 nM. With CNc1cc2ncc(-c3cc(NC(=O)c4cc(C(C)(C)C#N)ccn4)c(F)cc3Cl)cc2cn1 [compound 37] the IC50 was 20 to 100 nM. CNc1cc2ncc(-c3cc(NC(=O)c4cc(C(C)(C)C#N)ccn4)cc(F)c3C)cc2cn1 [compound 38] showed an IC50 of 20 to 100 nM. With CNc1cc2ncc(-c3cc(NC(=O)c4cc(C(C)(C)C#N)ccn4)cc(F)c3F)cc2cn1 [compound 39] the IC50 was 20 to 100 nM. CNc1cc2ncc(-c3cc(NC(=O)c4cc(C(C)(C)C#N)ccn4)ccc3F)cc2cn1 [compound 40] was tested, and the IC50 was 20 to 100 nM. Work on CNc1cc2ncc(-c3cc(NC(=O)c4cc(C(C)(C)C#N)ccn4)ccc3Cl)cc2cn1 [compound 41] yielded an IC50 of 20 to 100 nM. In the case of CNc1cc2ncc(-c3cc(NC(=O)c4cc(C(C)(C)C#N)ccn4)c(F)cc3C)cc2cn1 [compound 42], the IC50 is reported as 20 to 100 nM. Work on CNc1cc2ncc(-c3cc(NC(=O)c4cc(C(C)(C)C#N)ccn4)c(F)cc3F)cc2cn1 [compound 43] yielded an IC50 of 20 to 100 nM. With CNc1cc2ncc(-c3cc(NC(=O)c4cc(C(C)(C)C#N)ccn4)cc(F)c3Cl)cc2cn1 [compound 44] the IC50 was 20 to 100 nM. In the case of CNc1cc2ncc(-c3ccc(F)c(NC(=O)c4cc(C(C)(C)C#N)ccn4)c3)cc2cn1 [compound 45], the IC50 is reported as 100 to 500 nM. Work on CNc1cc2ncc(-c3cc(F)c(F)c(NC(=O)c4cc(C(C)(C)C#N)ccn4)c3)cc2cn1 [compound 46] yielded an IC50 of 100 to 500 nM. Work on CNc1cc2ncc(-c3cc(F)cc(NC(=O)c4cc(C(C)(C)C#N)ccn4)c3)cc2cn1 [compound 47] yielded an IC50 of 100 to 500 nM. With CNc1cc2ncc(-c3cc(NC(=O)c4cc(C(C)(C)C#N)ccn4)cc(Cl)c3C)cc2cn1 [compound 48] the IC50 was over 500 nM. Work on CNc1cc2ncc(-c3cc(NC(=O)c4cc(C(C)(C)C#N)ccn4)cnn3)cc2cn1 [compound 49] yielded an IC50 of under 20 nM. Work on CNc1cc2ncc(-c3cc(NC(=O)c4cc(C(C)(C)C#N)ccn4)c(Cl)cc3C)cc2cn1 [compound 50] yielded an IC50 of 100 to 500 nM. CNc1cc2ncc(-c3cc(NC(=O)c4cc(C(C)(C)C#N)ccn4)c(F)c(F)c3C)cc2cn1 [compound 51] gave an IC50 of over 500 nM. For CNc1cc2ncc(-c3cc(NC(=O)c4nccc(C(F)(F)F)c4F)cnc3C)cc2cn1 [compound 52], the IC50 was under 20 nM. With CNc1cc2ncc(-c3cc(C(=O)Nc4cc(C(C)(C)C#N)ccn4)ccc3C)cc2cn1 [compound 53] the IC50 was 20 to 100 nM. CNc1cc2ncc(-c3cc(NC(=O)c4ccnc(C(C)(C)C#N)c4)cnc3C)cc2cn1 [compound 55] gave an IC50 of under 20 nM. In the case of CNc1cc2ncc(-c3cc(NC(=O)c4ccnc(C(C)(C)C#N)c4)ccc3C)cc2cn1 [compound 56], the IC50 is reported as 20 to 100 nM. In the case of CNc1cc2ncc(-c3cc(NC(=O)c4ccnc(C(C)C)c4)cnc3C)cc2cn1 [compound 57], the IC50 is reported as under 20 nM. In the case of CNc1ncc2cc(-c3cc(NC(=O)c4ccnc(C(C)(C)C)c4)cnc3C)cnc2n1 [compound 58], the IC50 is reported as 20 to 100 nM. CNc1cc2ncc(-c3cc(C(=O)Nc4cc(C(C)(C)C#N)ccn4)cnc3C)cc2cn1 [compound 59] gave an IC50 of 20 to 100 nM. For CNc1cc2ncc(-c3cc(NC(=O)c4cc(C(F)(F)F)c(F)cn4)cnc3C)cc2cn1 [compound 60], the IC50 was under 20 nM. With CNc1cc2ncc(-c3cc(NC(=N)c4cc(C(F)(F)F)ccn4)ccc3C)cc2cn1 [compound 61] the IC50 was 100 to 500 nM. In the case of CNc1cc2ncc(-c3cc(NC(=O)CN4CCC[C@H](C(F)(F)F)C4)cnc3C)cc2cn1 [compound 62], the IC50 is reported as 20 to 100 nM. CNc1cc2ncc(-c3cc(NC(=O)CN4CCC[C@H](C(F)(F)F)C4)ccc3C)cc2cn1 [compound 63] showed an IC50 of 20 to 100 nM. Compound CNc1cc2ncc(-c3cc(NC(=N)c4cc(C(F)(F)F)ccn4)cnc3C)cc2cn1 [compound 64] has an IC50 of over 500 nM.

— US20260355169A1, “METHODS OF TREATING CANCERS USING ISOQUINOLINE OR 6-AZA-QUINOLINE DERIVATIVES” (Black Diamond Therapeutics, Inc., priority 2022, published 2026)
